Laboratory results taken from patent US10335504B2, “Heterocyclic molecules for biomedical imaging and therapeutic applications” (Washington University, priority 2013, dated 2019).
Entries after “also recorded” stand apart in the source; their conditions may differ. Like-named read-outs stand apart in the source and are kept apart here. One block for each molecule: values may come before it.

Legend:
Aβ plaques [1] = test: Staining of human AD brain tissue sections; assay type: binding; conditions: person with AD
Method: Staining experiments were performed with human brain tissues. Tissue samples were obtained from the frontal lobe of clinically and neuropathologically well-characterized cases. The neuropathological diagnosis of AD was based on the criteria of the Consortium to Establish a Registry for Alzheimer's Disease (CERAD) (Mirra, S., et al. The Consortium to Establish a Registry for Alzheimer's Disease (CERAD). Part II. Standardization of the neuropathologic assessment of Alzheimer's disease. Neurology 41, 479-486 (1991)) or the National Institute of Aging-Reagan Institute (NIA-RI) (Hyman, B. & Trojanowski, J. Consensus recommendations for the postmortem diagnosis of Alzheimer disease from the National Institute on Aging and the Reagan Institute Working Group on diagnostic criteria for the neuropathological assessment of Alzheimer disease. J Neuropathol Exp Neurol 56, 1095-1097. (1997)). […]
The fluorescent probe (F-AI-183) labels fibrillar amyloid (arrow). The slides were analyzed on a using a Nikon Ti-E PFS inverted microscope equipped with a Nikon 10×0.3 NA Plan APO objective, Prior H117 ProScan flat top linear encoded stage, and Prior Lumen 200PRO illumination system with standard DAPI and FITC filter sets. […] Images were processed and analyzed using the Image J software package (NIH).

Aβ plaques [2] = molecular target: T1, Aβ plaques (Homo sapiens, UniProt P05067); test: Ex vivo staining of mouse brain sections; assay type: binding; conditions: APPsw+/− mice, 24 months old
T1 construct: from tissue; host or cells: brain of APPsw+/-/PS1 (and APPsw+/-) transgenic mice: sections ex vivo, and live animals for multiphoton imaging
Method: FIG. 2 illustrates ex vivo staining studies were performed on brain sections (50 μm) of an APPsw^+/−/PS1 mouse (24 months old) and a control WT mouse (BL/6; 24 months old) using well-established procedures. Briefly, tissue sections were immunostained with mouse monoclonal antibody and visualized by donkey-anti-mouse HJ3.4 Aβ monoclonal antibody-Alexa 568 as a positive control. […] By comparison, no staining in WT mice was seen either with F-AI-182 or the antibody indicating the targeting specificity of F-AI-182. The slides were analyzed on a Zeiss LSM 5 PASCAL confocal system coupled to a Zeiss Axiovert 200 microscope.
The slides were analyzed using a Nikon Ti-E PFS inverted microscope equipped with a Nikon 10x 0.3 NA Plan APO objective, Prior H117 ProScan flat top linear encoded stage, and Prior Lumen 200PRO illumination system with standard DAPI and FITC filter sets. The images were acquired using a Photometrics CoolSNAP HQ2 digital camera and MetaMorph microscopy automaton, and imaging software. Images were processed and analyzed using the Image J software package (NIH).

preformed Aβ1-42 fibrils = molecular target: T2, preformed Aβ1-42 fibrils (Homo sapiens, UniProt P05067); test: Binding assay with preformed Aβ1-42 fibrils/aggregates in PBS (fluorescence)
T2 construct: preformed Aβ1-42 fibrils
Description: In some embodiments of the present teachings, binding assays to preformed fibrils or AD brain homogenate extracts can be performed using literature procedures (Klunk, W., et al. Uncharged thioflavin-T derivatives bind to amyloid-beta protein with high affinity and readily enter the brain. Life Sci 69, 1471-1484 (2001); Zhen, W., et al. Synthesis and amyloid binding properties of rhenium complexes: preliminary progress towards a reagent for SPECT imaging of Alzheimer's disease brain. J Med Chem 42, 2805-2815 (1999)). Prior to binding assays, the stock solution (2 μM) can be thawed. To aliquots of this stock solution, ^18F-AI-182 (also exemplified for either ^18F-AI-183 or ^18F-AI-187) can be added at various concentrations to a final concentration of 200 nM Aβ fibrils or 200 μL of AD brain extracts (20-25 μg). The aggregate-bound ^18F-AI-182 (or other analogues) can be collected on Whatman GF filters using Brandon M-24R cell harvester, washed, and counted in a γ-counter (Perkin Elmer). Inhibition constants (Ki) can be calculated as described previously (Han, H., Cho, C. & Lansbury, P. J. Technetium complexes for quantification of brain amyloid. J Am Chem Soc 118, 4506-4508 (1996)). Binding assay results can assist in evaluation of target specificity.
Binding assays of F-AI-182 with preformed Aβ1-42 aggregates were performed in PBS. […] Fluorescence was not observed using Aβ aggregates alone in PBS upon excitation at 410 nm (a negative control). […] Comparative analyses can be performed with other compounds such as AV-45, BAYER 94-9172, and AZD4694. An agent can be interacting with either of the two modestly high affinity binding sites (BS1& BS2) or recognizing an entirely new site on Aβ1-42. F-AI-182 can register different complementary binding sites in relation to Aβ-pathophysiology compared to current agents.

BS1 and BS3 sites = conditions: cited from earlier work
[3] = cited from earlier work
[4] = cited from earlier work; remark: listed apart in the source
Stability in human serum = assay type: in vitro ADME
Description: In various configurations, identified heterocyclic molecules can be assessed for metabolic stability for use in biomedical imaging applications both in vitro and in vivo using established procedures (e.g., Mathis, C., et al. Synthesis and evaluation of ^11C-labeled 6-substituted 2-arylbenzothiazoles as amyloid imaging agents. J. Med. Chem. 46, 2740-2754 (2003); Sharma, V. Radiopharmaceuticals for assessment of multidrug resistance P-glycoprotein-mediated transport activity. Bioconjug. Chem. 15, 1464-1474 (2004)). In some embodiments, ^18F-AI-182, another agent, or a combination thereof can be incubated in either serum or human serum albumin at time points corresponding to uptake in vivo (5 min to 2 h) and filtered through filters (30 kDa). Free and bound radiotracer can be calculated using previously describe methods (Bartholoma, M. D., et al. Effect of the prosthetic group on the pharmacologic properties of ^18F-labeled rhodamine B, a potential myocardial perfusion agent for positron emission tomography (PET). J Med Chem 55, 11004-11012 (2012)), and can be analyzed by radio-TLC scanner and radio-HPLC. […] Brain tissues, liver, and kidney can be removed (liver and kidney can be used to evaluate their metabolic stability in more stringent in vivo environments), sonicated, extracted and analyzed through radio-TLC and -HPLC.

[5] = Biodistribution study in normal FVB mice; assay type: in vivo, mouse; conditions: for tissue uptake at 5 min / tissue uptake at 120 min: mouse, intravenous
Description: In various configurations, agents can be evaluated in part by exploring the tissue distribution and kinetics of ^18F-AI-182 or other agents in normal mice and transgenic mice. Because these heterocyclic molecules can be labeled with ^18F using the methods described herein, biodistribution in normal mice can be determined. In such investigations, BL/6 (control mice; Taconic) or APPsw^+/−/PS1 (transgenic, Taconic) mice can be anesthetized by isoflurane inhalation and injected with ^18F-AI-182 or other agents (20 μCi in 50-100 μl saline) via bolus injection through a tail vein. Animals can be sacrificed by cervical dislocation at 2, 30, 60, and 120 min post-injection (n=2-4) and data can be quantified into % ID/g as described (Sivapackiam, J., et al. Synthesis, molecular structure, and validation of metalloprobes for assessment of MDR1 P-glycoprotein-mediated functional transport. Dalton Trans 39, 5842-5850 (2010)). The brains can be removed and dissected into cerebellums and remaining whole brain fractions prior to weighing and counting to evaluate regional differences in the location of radiotracer in comparison with transgenic mice.
For in vivo imaging of Aβ plaques, the basic pharmacokinetic model in an unaffected normal brain involves high initial penetration of the agent, followed by rapid clearance due to lack of a binding target. However, in AD brains, high initial penetration can be followed by regional retention as the agent binds to Aβ thus leading to differential kinetics. To accomplish this objective, biodistribution studies of ^18F-AI-182 were performed in normal FVB mice for assessment of signal to noise ratios and clearance profiles. Brain uptake of ^18F-AI-182 was analyzed in terms of percent injected dose per gram of the brain tissue (% ID/g). […] This initial brain uptake value (5 min) in normal mice is approximately 15-fold high compared with our Aβ-targeted ^99mTc-Peptides (Harpstrite, S. E., Prior, J., Binz, K., Piwnica-Worms, D. & Sharma, V. ^99mTc-Peptide conjugates for imaging β-amyloid in the brain. ACS Med Chem Lett (2013) under review). […] Net brain uptake of ^18F-AI-182 is 1.2-fold higher than that of ^18F-AV-45. The initial data point for ^18F-AI-182 is at 5 min compared with 2 min for ^18F-AV-45.

[6] = Literature biodistribution in normal mice (Choi et al. 2009); assay type: in vivo, mouse
[7] = cited from earlier work; for brain uptake: normal mice

T2 sequence (P05067 672-713 limits assumed): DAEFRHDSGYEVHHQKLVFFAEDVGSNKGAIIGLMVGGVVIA
T1 sequence (P05067 672-713 limits assumed): as above

Compound: CN(C)c1ccc(/C=C/c2nc3cc(OCCF)ccc3[se]2)cn1 [F-AI-183]
detection of Aβ plaques in human AD brain cross-sections of frontal lobe (Aβ plaques [1]): detection of compact Aβ plaques; also recorded: detected compact Aβ plaques
staining of brain tissue sections (Aβ plaques [2]): labeling of Aβ plaques
Kd (preformed Aβ1-42 fibrils): 17 nM

Compound: CN(C)c1ncc(/C=C/c2nc3cc(OCCF)ccc3[se]2)cn1 [F-AI-187]
Kd (preformed Aβ1-42 fibrils): 1.58 nM

Compound: CC(=C(C#N)C#N)c1ccc2cc(N(C)CC[18F])ccc2c1 [FDDNP, 2-(1-(6-[(2-[18F]fluoroethyl)(methyl)amino]-2-naphthyl)ethylidene)malononitrile]
affinity for BS1 and BS3 sites (BS1 and BS3 sites): low affinity

Compound: [11CH3]Nc1ccc(/C=C/c2ccc(O)cc2)cc1 [SB-13, [^11C]4-N-methylamino-4′-hydroxystilbene]
biological half-life in serum [3]: low

Compound: [11CH3]Nc1ccc(-c2nc3ccc(O)cc3s2)cc1 [^11C-PIB, 2-[p-(Methylamino)phenyl]-3-thia-1-aza-5-indanol]
metabolism in vivo [4]: facile metabolism

metabolism in human serum (Stability in human serum; human serum): non-metabolized
time until which non-metabolized in human serum (Stability in human serum; investigated highest time-point): about 30 min
tissue uptake at 5 min ([5]; FVB, kidney, normal mice, 5 min, read-out: kidney uptake): 6.76 ± 1.57 %ID/g
tissue uptake at 120 min ([5]; FVB, kidney, normal mice, 120 min, read-out: kidney uptake): 1.57 ± 0.08 %ID/g
tissue uptake at 5 min ([5]; FVB, liver, normal mice, 5 min, read-out: liver uptake): 16.3 ± 1.41 %ID/g
tissue uptake at 120 min ([5]; FVB, liver, normal mice, 120 min, read-out: liver uptake): 2.71 ± 0.21 %ID/g
tissue uptake at 5 min ([5]; brain, normal FVB mice, 5 min post tail-vein injection, read-out: brain uptake): 7.28 ± 0.46 %ID/g
tissue uptake at 120 min ([5]; brain, normal FVB mice, 120 min post tail-vein injection, read-out: brain uptake): 1.54 ± 0.06 %ID/g
5 min/120 min brain clearance ratio ([5]; normal mice): 4.73
initial brain uptake (5 min) compared with Aβ-targeted 99mTc-Peptides ([5]; normal mice): approximately 15 fold
net brain uptake relative to 18F-AV-45 ([5]; normal mice): 1.2 fold
blood clearance faster than 18F-AV-45 ([5]; normal mice, 5 min to 120 min): 25%
Compound: CN(C)c1ccc(/C=C/c2nc3ccc(OCC[18F])cc3s2)cn1 [^18F-AI-182]
penetration of brain / blood-brain barrier ([5]; mice): facile penetration of the blood-brain barrier (BBB)

2 min/120 min brain clearance ratio [6]: 4.07
Compound: CNc1ccc(/C=C/c2ccc(OCCOCCOCC[18F])nc2)cc1 [^18F-AV-45]
biological half-life in serum [3]: low
metabolism in vivo [4]: facile metabolism
kidney uptake ([7]; 2 min): 14.19±2.34 % ID/g
kidney uptake ([7]; 120 min): 2.19±0.36 % ID/g
liver uptake ([7]; 120 min): 4.96±0.90 % ID/g
brain uptake ([7]; 2 min post-injection): 7.33±1.54 % ID/g
brain uptake ([7]; 120 min post-injection): 1.80±0.07 % ID/g
